Experimental data as given in US10517889B2, “Modulators of SMAD7 expression” (Ionis Pharmaceuticals, Inc., priority 2017, dated 2019).
Strand notation (5' to 3'): a small letter for the sugar, then the base; units joined by * are phosphorothioate-linked, units joined directly phosphodiester-linked; [ ] holds rarer units or linkages, { } end groups; capitals alone tell only the bases. k = constrained ethyl (cEt); [5mC] = 5-methylcytosine; d = 2'-deoxy (DNA)

tested on: human SMAD7 mRNA; assay: Antisense inhibition of human SMAD7 mRNA expression in Hep3B cells by 3-10-3 cEt gapmers, 10,000 nM, electroporation (Example 2); assay type: cell-based; settings: Hep3B cells, 10,000 nM antisense oligonucleotide, electroporation, approximately 24 hours, RT-PCR primer probe set RTS5062, relative to untreated control cells
Procedure, shortened: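 Hep3B cells (20,000 per well) were electroporated with 10,000 nM 16-mer 3-10-3 cEt gapmer (phosphorothioate, 5-methylcytosine). After about 24 h, SMAD7 mRNA was quantified by qRT-PCR with primer probe set RTS5062, normalised to RIBOGREEN total RNA, and expressed as percent inhibition versus untreated cells.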

Substance | % Inhibition
798910 (k[5mC]*kA*k[5mC]*dG*d[5mC]*dG*dG*d[5mC]*dT*dA*d[5mC]*d[5mC]*dG*kG*k[5mC]*kT; antisense) [compound 798910] | 42%
800089 (antisense kA*kG*kG*dA*dA*d[5mC]*d[5mC]*dT*dA*dT*d[5mC]*dT*dG*kG*kT*kA) [compound 800089] | 0%
799930 (antisense kT*k[5mC]*kT*dT*dT*dT*dA*dT*d[5mC]*dA*d[5mC]*dT*dG*kT*k[5mC]*kA) [compound 799930] | 8%
799993 (kA*kT*kA*dA*dT*dG*dA*dA*dG*dT*dG*dA*dT*kA*kT*kT; antisense) [compound 799993] | 0%
798873 (kG*k[5mC]*kT*dG*dT*dA*d[5mC]*dG*d[5mC]*d[5mC]*dT*dT*d[5mC]*kT*k[5mC]*kG; antisense) [compound 798873] | 27%
800037 (k[5mC]*kA*k[5mC]*d[5mC]*dA*dG*d[5mC]*dA*dG*d[5mC]*d[5mC]*dT*d[5mC]*kT*kG*kT; antisense) [compound 800037] | 0%
800054 (antisense kG*k[5mC]*kT*dA*d[5mC]*dA*d[5mC]*d[5mC]*dA*dA*dA*dG*dA*k[5mC]*k[5mC]*kT) [compound 800054] | 62%
798926 (antisense k[5mC]*kA*kA*dA*dG*dT*dA*dG*dT*dT*dT*dG*dA*kA*kG*kT) [compound 798926] | 17%
799877 (kA*k[5mC]*kT*dT*dT*dA*d[5mC]*dA*dA*d[5mC]*d[5mC]*d[5mC]*dA*kA*kT*kA; antisense) [compound 799877] | 52%
800055 (antisense kA*kT*kA*dA*dA*d[5mC]*dT*dT*dG*dT*dG*dA*dG*k[5mC]*kG*k[5mC]) [compound 800055] | 8%

same assay, conditions: Hep3B cells, electroporation with 10,000 nM antisense oligonucleotide, approximately 24 hours, RTS5062, percent inhibition of SMAD7 mRNA relative to untreated control cells

Substance | % Inhibition
799683 (antisense k[5mC]*kT*kG*d[5mC]*dA*dG*dA*dA*dG*dA*dG*dG*d[5mC]*kG*kG*kG) [compound 799683] | 32%
799317 (antisense kT*kA*kA*dA*dA*dA*d[5mC]*dA*d[5mC]*d[5mC]*dA*dA*dG*kA*kT*k[5mC]) [compound 799317] | 0%
799524 (antisense kA*kT*k[5mC]*dA*dA*dG*dG*dG*d[5mC]*dA*dG*dA*dA*kG*kG*k[5mC]) [compound 799524] | 23%

same assay, conditions: Hep3B cells, electroporation with 10,000 nM antisense oligonucleotide, approximately 24 hours, SMAD7 mRNA by RT-PCR (RTS5062), relative to untreated control cells

Substance | % Inhibition
799408 (antisense kT*kT*kA*dA*dA*dT*d[5mC]*d[5mC]*dT*dG*dA*dG*dA*kA*k[5mC]*kA) [compound 799408] | 27%
799450 (antisense kA*kA*kG*dA*dA*d[5mC]*dA*d[5mC]*dA*dG*d[5mC]*dA*d[5mC]*kT*kG*k[5mC]) [compound 799450] | 53%
830040 (antisense k[5mC]*kA*k[5mC]*dT*dT*d[5mC]*d[5mC]*dT*dA*dT*dT*dG*dG*k[5mC]*kT*kG) [compound 830040] | 44%
798830 (kG*kA*kA*dG*dA*dT*dA*dT*d[5mC]*d[5mC]*dA*dG*dA*kG*kA*kG; antisense) [compound 798830] | 17%
799985 (kA*kA*k[5mC]*dA*dT*d[5mC]*dA*d[5mC]*d[5mC]*dA*d[5mC]*dG*d[5mC]*k[5mC]*kT*k[5mC]; antisense) [compound 799985] | 53%
798753 (kT*kG*k[5mC]*dA*dG*dT*d[5mC]*d[5mC]*dA*dG*dG*d[5mC]*dG*kG*k[5mC]*k[5mC]; antisense) [compound 798753] | 0%
798664 (kG*kG*k[5mC]*d[5mC]*dT*dG*d[5mC]*dG*d[5mC]*dT*d[5mC]*d[5mC]*dG*kG*k[5mC]*kT; antisense) [compound 798664] | 7%
799981 (kA*k[5mC]*k[5mC]*dA*dA*d[5mC]*dG*dG*dT*dT*dG*d[5mC]*d[5mC]*kT*k[5mC]*kA; antisense) [compound 799981] | 14%
830081 (kG*kT*kG*dT*dA*dT*dA*d[5mC]*d[5mC]*d[5mC]*dT*dG*d[5mC]*kA*k[5mC]*kT; antisense) [compound 830081] | 0%
798817 (kG*k[5mC]*k[5mC]*dA*d[5mC]*d[5mC]*dA*d[5mC]*dG*d[5mC]*dA*d[5mC]*d[5mC]*kA*kG*kT; antisense) [compound 798817] | 26%
830060 (kT*kA*k[5mC]*d[5mC]*dA*d[5mC]*d[5mC]*d[5mC]*d[5mC]*dT*dG*dT*dG*kA*kA*kG; antisense) [compound 830060] | 8%
798900 (k[5mC]*k[5mC]*kA*dG*d[5mC]*dA*d[5mC]*dG*dG*dG*d[5mC]*dA*dG*k[5mC]*kT*kG; antisense) [compound 798900] | 0%
830136 (antisense kG*kA*kA*dA*dG*dT*dA*d[5mC]*dA*dA*dT*d[5mC]*dT*k[5mC]*k[5mC]*kT) [compound 830136] | 64%
830061 (k[5mC]*kT*kA*d[5mC]*d[5mC]*dA*d[5mC]*d[5mC]*d[5mC]*d[5mC]*dT*dG*dT*kG*kA*kA; antisense) [compound 830061] | 4%
799948 (antisense kA*kT*kA*dT*dT*dG*d[5mC]*d[5mC]*dT*dG*dG*dT*dG*kT*kG*kA) [compound 799948] | 48%

same assay, conditions: Hep3B cells, electroporation with 10,000 nM antisense oligonucleotide, approximately 24 hours, primer probe set RTS5062, relative to untreated control cells

Substance | % inhibition of SMAD7 mRNA expression | % Inhibition
799249 (antisense kG*k[5mC]*kG*dG*d[5mC]*d[5mC]*dA*d[5mC]*dG*dA*d[5mC]*dA*dG*kT*kA*kT) [compound 799249] | 26% | 
798962 (antisense kT*kT*k[5mC]*d[5mC]*dA*dA*dA*dA*dA*dA*dA*d[5mC]*d[5mC]*k[5mC]*k[5mC]*k[5mC]) [compound 798962] |  | 2%
799341 (kG*kA*kA*dG*dG*dA*dA*dA*dA*dA*dG*dT*dA*kG*kG*kG; antisense) [compound 799341] | 8% | 
799123 (antisense k[5mC]*kT*kT*dG*d[5mC]*dT*dG*dG*d[5mC]*d[5mC]*dT*dA*dA*kT*kA*kG) [compound 799123] | 23% | 
798777 (kG*k[5mC]*kA*dA*d[5mC]*dA*d[5mC]*dA*dG*d[5mC]*d[5mC]*dT*d[5mC]*kT*kT*kG; antisense) [compound 798777] | 20% | 
799105 (antisense k[5mC]*kT*kA*dA*dG*dT*d[5mC]*d[5mC]*dG*dG*dG*dA*dA*kA*kA*kA) [compound 799105] | 12% | 
798974 (antisense k[5mC]*kT*k[5mC]*dT*dT*d[5mC]*d[5mC]*dT*dA*dT*d[5mC]*dA*dG*kG*kG*kT) [compound 798974] |  | 12%
790621 (kG*kT*kG*d[5mC]*dA*dT*d[5mC]*dT*dT*dT*dT*d[5mC]*dT*kT*kT*kA; antisense) [compound 790621] | 0% | 
799058 (antisense kA*kG*k[5mC]*dA*dG*dG*d[5mC]*dT*d[5mC]*dG*d[5mC]*dT*dG*k[5mC]*kT*k[5mC]) [compound 799058] |  | 0%
799444 (antisense k[5mC]*kA*kT*d[5mC]*dA*dT*dG*d[5mC]*dT*dG*dA*dT*dT*kT*kT*kA) [compound 799444] | 45% | 
799073 (antisense k[5mC]*kG*k[5mC]*dT*dA*d[5mC]*dA*dA*dT*dG*dG*d[5mC]*dA*kG*kG*kG) [compound 799073] |  | 34%
798677 (antisense kA*k[5mC]*kA*d[5mC]*d[5mC]*dA*dT*dG*dA*dA*dG*dA*dA*kG*kT*k[5mC]) [compound 798677] | 36% | 
799087 (antisense k[5mC]*k[5mC]*k[5mC]*d[5mC]*dG*dG*d[5mC]*dA*dG*d[5mC]*d[5mC]*d[5mC]*dT*kT*kG*kG) [compound 799087] | 69% | 
799482 (antisense kG*kA*kA*dA*dA*dG*d[5mC]*d[5mC]*dG*dG*dG*d[5mC]*dA*kT*k[5mC]*kT) [compound 799482] | 30% | 
798981 (antisense k[5mC]*kA*kT*dA*d[5mC]*dA*d[5mC]*dT*dG*dT*dG*dT*dT*kT*kG*kG) [compound 798981] |  | 58%
799221 (kT*kT*kT*dA*dA*dT*dT*dT*dG*dG*d[5mC]*dA*dT*kT*kT*kG; antisense) [compound 799221] |  | 0%

same assay, conditions: Hep3B cells, electroporation, 10,000 nM antisense oligonucleotide, approximately 24 hours, RTS5062, relative to untreated control cells

Substance | % inhibition of SMAD7 mRNA expression
799615 (kG*kG*kA*dG*dA*dG*dG*dA*d[5mC]*d[5mC]*dG*dG*d[5mC]*k[5mC]*kT*kT; antisense) [compound 799615] | 24%
772813 (kA*kA*kG*dG*dG*d[5mC]*dG*d[5mC]*dA*dG*dG*dA*dA*kA*kG*kG; antisense) [compound 772813] | 43%
799598 (k[5mC]*kA*kA*d[5mC]*dT*d[5mC]*dT*dG*dA*dA*d[5mC]*dG*dG*kA*kA*kA; antisense) [compound 799598] | 39%

same assay, conditions: SMAD7 mRNA, Hep3B cells, 10,000 nM antisense oligonucleotide, electroporation, approximately 24 hours, primer probe set RTS5062, relative to untreated control cells

Substance | % Inhibition
772765 (kG*kA*kT*dT*dG*dG*d[5mC]*dA*dG*dG*dT*dT*dA*kA*kT*k[5mC]; antisense) [compound 772765] | 35%
790791 (kG*kG*kG*d[5mC]*dA*d[5mC]*dA*d[5mC]*d[5mC]*dA*d[5mC]*d[5mC]*dT*kG*k[5mC]*k[5mC]; antisense) [compound 790791] | 7%

same assay, conditions: SMAD7 mRNA, Hep3B cells, electroporation with 10,000 nM antisense oligonucleotide, approximately 24 hours, primer probe set RTS5062, relative to untreated control cells

Substance | % Inhibition
829937 (kT*kT*k[5mC]*dA*dG*d[5mC]*dT*dA*dG*dG*dT*dG*dA*kT*kA*kA; antisense) [compound 829937] | 0%
